Legend:
[1] = with the anticholinergic agent glycopyrrolate; escalating amounts of RS-86; Alzheimer's Disease; cited from earlier work
[2] = system: normal healthy volunteers; experiment: Phase I double-blind randomized multiple-dose study, xanomeline alone vs xanomeline with trospium chloride: adverse event incidence; type: in vivo, human
Text: We conducted a Phase I, double-blind, randomized multiple-dose pilot study of xanomeline administered alone compared to xanomeline administered in combination with trospium chloride in normal healthy volunteers. […] The parameters of the study were as follows:
70 total study subjects were randomized, and of these, 68 study subjects received at least one assessment on day 3, which was the first day of xanomeline administration. The demographics of the study subjects were as follows:
The incidence and number of cholinergic adverse events in the evaluable population of the study was as follows, with all p-values based on a chi-squared test, with the exception of those marked with a * which werebased on a Fisher's exact test: […]

[3] = methscopolamine given with xanomeline; Medina et al. 1997; cited from earlier work
[4] = evaluable population, xanomeline 75 mg TID, trospium 20 mg BID or placebo, 7 days

CCN1C(=O)CC2(CCN(C)CC2)C1=O [RS-86]
improvement in cognition [1]: did not result in any improvement in cognition

CCCCCCOc1nsnc1C1=CCCN(C)C1 [Xanomeline + placebo, Xanomeline]
Salivation, % of subjects ([2]; evaluable population, 7 days): 36.4%
Sweating, % of subjects ([2]; evaluable population, 7 days): 48.5%
Any cholinergic TEAEs, # of events [2, 4]: 64
Any cholinergic TEAEs, % of subjects [2, 4]: 63.6%
Any cholinergic TEAEs, n subjects [2, 4]: 21
Any cholinergic TEAEs, % of subjects ([2]; evaluable population, xanomeline 75 mg TID, trospium 20 mg BID or placebo, 7 days, listed as xanomeline+placebo): 63%
Any SAE, # events ([2]; in vivo): 0
Any SAE, % ([2]; in vivo): 0.0%
Any study drug related TEAE, # events ([2]; in vivo): 92
Any study drug related TEAE, % ([2]; in vivo): 69.7%
Max Severity of TEAE Mild, % ([2]; in vivo): (66.7) N/A %
Max Severity of TEAE Moderate, % ([2]; in vivo): (15.2) N/A %
Max Severity of TEAE Severe, % ([2]; in vivo): (0.0) %
Max severity of study drug related TEAE Mild, % ([2]; in vivo): (57/6) N/A
Max severity of study drug related TEAE Moderate, % ([2]; in vivo): (12.1) N/A %
Max severity of study drug related TEAE Severe, % ([2]; in vivo): (0.0) N/A %

C[N+]1(C)[C@@H]2C[C@@H](OC(=O)[C@H](CO)c3ccccc3)C[C@H]1[C@@H]1O[C@@H]12 [methscopolamine]
effect on syncope, a side effect observed with xanomeline [3]: no effect on syncope

From patent US10265311B2, “Methods and compositions for treatment of disorders ameliorated by muscarinic receptor activation” (PureTech Health LLC, priority 2009, dated 2019)
